For one assay, the system named is P. aeruginosa PA403. The assay can be described thus: MIC by microdilution with PaβN or EGTA, efflux-deleted laboratory strain. It counts as cell-based. The following applies: Pseudomonas aeruginosa, read-out: MIC. How it is done:
(§1) The compounds described herein are poor substrates of efflux pumps expressed in P. aeruginosa (PA). MICs of 36 clinical and laboratory strains of PA with known efflux phenotype are measured by microdilution in cation-adjusted Muller-Hinton broth (CA-MHB) or in RPMI medium (commonly used in eukaryotic cell culture). Phe-Arg-β-naphthylamide (PaβN, 50 mg/L) and EGTA 5 mM are used to inhibit efflux pumps and alter OM integrity, respectively. P. aeruginosa strain ATCC PAO1 is used as reference. PA12 is a clinical strain overexpressing the 4 main efflux systems (MexAB, MexCD, MexEF, MexXY), PA403 is a laboratory strain deleted in the genes coding for the 4 efflux systems. A series of reference strains or of clinical isolates for which the expression of genes coding for efflux pumps is known is also used for MICs determinations. MICs are measured by microdilution in MH broth or in RPMI medium (used for eukaryotic cells culture) supplemented with 10% of fetal calf serum, or in MH broth supplemented by increasing amounts of serum. EGTA (5 mM) was used as a chelating agent (disrupting outer membrane integrity) and PaβN (50 mg/L) as an unspecific efflux inhibitor.
Background: Broth dilution looks for growth in wells or tubes with falling amounts of substance.

A further assay deals with MMP9 activity. The assay can be described thus: PMA-induced MMP9 activation in U937 cells (gelatin zymography). It counts as cell-based, human. The following applies: for IC50: Homo sapiens. The procedure:
Effects of macrolides on phorbol 12-myristate 13-acetate (PMA)-induced MMP9 activation in U937 cells. […] After 48 h supernatants were collected for zymography. MMP9 enzyme activity was measured by gelatin zymography. Data are expressed relative to standard.
(§2) The human monocytic cell line U937 was obtained from the American Type Culture Collection (ATCC, Rockville, Md.). PBMCs from COPD patients were obtained from Brompton hospital and separated by AccuSPIN (Sigma-Aldrich). Cells were cultured in complete growth medium (RPMI 1640) (Sigma-Aldrich) supplemented with 10% fetal bovine serum (FBS) and 1% L-glutamine at 37° C. in a humidified atmosphere with 5% CO2. U937 cells were differentiated into adherent macrophage-like morphology by exposure to PMA (50 ng/mL) for 48 hrs in complete growth medium. Cell viability was assessed microscopically by trypan blue staining. Cell toxicity was determined by MTT assay as needed. This study was approved by the ethics committee of the Royal Brompton Hospitals, and all subjects gave written informed consent.
MMP9 enzyme activity was measured by gelatin zymography. Cell culture supernatants were diluted with equal amount of Laemli sample buffer (Bio-Rad, Hertfordshire, UK) and loaded on a Novex® 10% Zymogram (Gelatin) gel (Invitrogen Ltd, Paisley, UK). After electrophoresis, gels were incubated and rinsed with Novex® zymogram renaturing buffer (Invitrogen) for 30 min at room temperature. The gels were then rinsed in Novex® zymogram developing buffer (Invitrogen) for 30 min at room temperature prior to overnight incubation in the developing buffer at 37° C. After incubation, the gels were stained using a Colloidal Blue Staining Kit (Invitrogen) to visualize the zymogen bands.
(§3) The results were expressed as the mean±SEM. Comparisons of data in two groups were performed using the Student's t test or the Wilcoxon signed rank test. Multiple comparisons were made by one-way ANOVA with post hoc test (Dunnett's) as appropriate. The difference was considered significant at p<0.05. IC50 values (50% inhibitory concentration) for macrolides for production of cytokines or MMP9 were calculated using Prism 4.0 (GraphPad Software Inc., San Diego, Calif.).

The next assay concerns P. aeruginosa PAO1. The assay can be described thus: MIC by microdilution with PaβN or EGTA, wild-type strain. It is filed as cell-based. The following applies: Pseudomonas aeruginosa. How it is done:
as §1, with “MICs” for “The compounds described herein are poor substrates of efflux pumps expressed in P. aeruginosa (PA). MICs”

In a further assay the test system is IL-8 (CXCL8) release. Description: LPS-induced IL-8 (CXCL8) release in PMA-differentiated U937 cells (ELISA). It counts as cell-based, human. How it is done: Effects of macrolides on lipopolysaccharide (LPS)-induced CXCL8 release in PMA-differentiated U937 cells. […] LPS-induced CXCL8 release was evaluated by ELISA. Values represent means of three experiments±SEM. ^##p<0.01 (vs. non-treatment control), *p<0.05, **p<0.01 (vs. treatment with LPS only).
as §2
TNFα and IL-8 concentrations in the supernatant of cell cultures were determined by sandwich ELISA according to the manufacturer's instructions (R&D Systems Europe, Abingdon, UK).
as §3

[1] abbreviates: PA403, P403, CA-MHB, control conditions (CT).
The mark [2] stands for this setting: PA403, P403, RPMI, PaβN 50 mg/L.
Setting [3] is: PA403, P403, RPMI, control conditions (CT).
Setting [4] is: PAO1, PAO1, CA-MHB, PaβN 50 mg/L, read-out: MIC.
The mark [5] stands for this setting: PAO1, PAO1, CA-MHB, control conditions (CT).
[6] abbreviates: PAO1, PAO1, RPMI, EGTA 5 mM, read-out: MIC.
The mark [7] stands for this setting: PAO1, PAO1, RPMI, PaβN 50 mg/L, read-out: MIC.
[8] abbreviates: PAO1, PAO1, RPMI, control conditions (CT), read-out: MIC.
[9] abbreviates: Homo sapiens, U-937, U937 cells, at 333 μM, read-out: IC50, LPS-induced IL-8 release: NE at 333 μM.
Where [10] appears, read: PAO1, PAO1, CA-MHB, EGTA 5 mM, read-out: MIC.
Setting [11] is: U-937, read-out: IC50, PMA-induced MMP9 activation.

≈ marks a conversion by molar mass, not a printed value. Like-named read-outs stand apart in the source and are kept apart here.

The MIC is the lowest concentration found to suppress growth. Broadly, the IC50 is the point on the concentration scale where inhibition reaches its midpoint.

Regarding `CC[C@H]1OC(=O)[C@H](C)[C@@H](O[C@H]2C[C@@](C)(OC)[C@@H](O)[C@H](C)O2)[C@H](C)[C@@H](O[C@@H]2O[C@H](C)C[C@H](N(C)C)[C@H]2O)[C@](C)(O)C[C@@H](C)C(=O)[C@H](C)[C@@H](O)[C@]1(C)O` [ERY, erythromycin], the MIC in the assay on P. aeruginosa PA403 (PA403, P403, CA-MHB, EGTA 5 mM) came to 16 µg/mL (≈ 21.8 µM); in the assay with P. aeruginosa PA403 (setting [1]), 16 µg/mL (≈ 21.8 µM); in the assay with P. aeruginosa PA403 (PA403, P403, RPMI, EGTA 5 mM), 0.5 µg/mL (≈ 0.681 µM); in the assay on P. aeruginosa PA403 (setting [2]), 4 µg/mL (≈ 5.45 µM); in the assay on P. aeruginosa PA403 (setting [3]) it was 4 µg/mL (≈ 5.45 µM); in the assay on P. aeruginosa PAO1 (setting [4]) it was 16 µg/mL (≈ 21.8 µM). Moreover, the MIC amounted to 512 µg/mL (≈ 698 µM) in the assay on P. aeruginosa PAO1 (setting [5]), 32 µg/mL (≈ 43.6 µM) in the assay on P. aeruginosa PAO1 (setting [6]), 32 µg/mL (≈ 43.6 µM) with P. aeruginosa PAO1 (setting [7]) and 32 µg/mL (≈ 43.6 µM) with P. aeruginosa PAO1 (setting [8]). In addition, in the assay with MMP9 activity, the “effect on MMP9 activity” value is “no effect”. Also, the IC50 in the assay with MMP9 activity (U-937, at 333 μM, read-out: IC50, PMA-induced MMP9 activation: NE at 333 μM) is > 333 µM; in the assay with IL-8 (CXCL8) release (setting [9]) it was > 333 µM. Also, in the assay with IL-8 (CXCL8) release (33 to 333 μM (FIG. 4)), the “effect on IL-8 production” value is “did not inhibit”.

As for `CC[C@H]1OC(=O)[C@H](C)C(=O)[C@H](C)[C@@H](O[C@@H]2O[C@H](C)C[C@H](N(C)C)[C@H]2O)[C@](C)(OC)C[C@@H](C)C(=O)[C@H](C)[C@H]2N(CCCCn3cnc(-c4cccnc4)c3)C(=O)O[C@]12C` [TEL, telithromycin], the MIC in the assay with P. aeruginosa PA403 (PA403, P403, CA-MHB, EGTA 5 mM) was 2 µg/mL (≈ 2.46 µM); in the assay with P. aeruginosa PA403 (setting [1]), 4 µg/mL (≈ 4.93 µM); in the assay on P. aeruginosa PA403 (PA403, P403, RPMI, EGTA 5 mM), 0.06 µg/mL (≈ 0.0739 µM); in the assay on P. aeruginosa PA403 (setting [2]), 1 µg/mL (≈ 1.23 µM); in the assay on P. aeruginosa PA403 (setting [3]), 0.5 µg/mL (≈ 0.616 µM); in the assay with P. aeruginosa PAO1 (setting [10]), 32 µg/mL (≈ 39.4 µM). For the same compound, the MIC in the assay with P. aeruginosa PAO1 (setting [4]) worked out at 4 µg/mL (≈ 4.93 µM); against P. aeruginosa PAO1 (setting [5]) it was 128 µg/mL (≈ 158 µM); with P. aeruginosa PAO1 (setting [6]), 1 µg/mL (≈ 1.23 µM); in the assay with P. aeruginosa PAO1 (setting [7]), 4 µg/mL (≈ 4.93 µM); in the assay on P. aeruginosa PAO1 (setting [8]), 2 µg/mL (≈ 2.46 µM). For the same compound, in the assay with IL-8 (CXCL8) release (Homo sapiens, U-937, read-out: IC50, LPS-induced IL-8 release: NE at 100 μM, U937 cells, at 100 μM), the IC50 is > 100 µM. Also, the “effect on CXCL8 production” value in the assay on IL-8 (CXCL8) release (at 100 μM) is given as “did not inhibit”.

`CC[C@H]1OC(=O)[C@H](C)[C@@H](O[C@H]2C[C@@](C)(OC)[C@@H](O)[C@H](C)O2)[C@H](C)[C@@H](O[C@@H]2O[C@H](C)C[C@H](N(C)C)[C@H]2O)[C@](C)(OC)C[C@@H](C)C(=O)[C@H](C)[C@@H](O)[C@]1(C)O` [CLR, clarithromycin]: the MIC turned out to be 32 µg/mL (≈ 42.8 µM) in the assay with P. aeruginosa PA403 (PA403, P403, CA-MHB, EGTA 5 mM); 16 µg/mL (≈ 21.4 µM) with P. aeruginosa PA403 (setting [1]); 0.5 µg/mL (≈ 0.668 µM) in the assay with P. aeruginosa PA403 (PA403, P403, RPMI, EGTA 5 mM); 4 µg/mL (≈ 5.35 µM) in the assay on P. aeruginosa PA403 (setting [2]); 4 µg/mL (≈ 5.35 µM) with P. aeruginosa PA403 (setting [3]); 8 µg/mL (≈ 10.7 µM) in the assay on P. aeruginosa PAO1 (setting [4]). Besides, the MIC was 512 µg/mL (≈ 685 µM) with P. aeruginosa PAO1 (setting [5]), 32 µg/mL (≈ 42.8 µM) in the assay on P. aeruginosa PAO1 (setting [6]), 4 µg/mL (≈ 5.35 µM) in the assay with P. aeruginosa PAO1 (setting [7]) and 32 µg/mL (≈ 42.8 µM) with P. aeruginosa PAO1 (setting [8]). Also, the “inhibitory effect on MMP9 activity, lower than CEM-101” value in the assay on MMP9 activity was determined as 10 fold. The IC50 stood at 118 µM with MMP9 activity (setting [11]) and 506 µM in the assay on IL-8 (CXCL8) release (PMA-differentiated U937 cells, read-out: IC50, LPS-induced IL-8 (CXCL8) release). For the same compound, in the assay with IL-8 (CXCL8) release (at a higher concentration (333 μM)), the “effect on IL-8 production” value is given as “modest effects”.

On to `CC[C@H]1OC(=O)[C@H](C)[C@@H](O[C@H]2C[C@@](C)(OC)[C@@H](O)[C@H](C)O2)[C@H](C)[C@@H](O[C@@H]2O[C@H](C)C[C@H](N(C)C)[C@H]2O)[C@](C)(O)C[C@@H](C)CN(C)[C@H](C)[C@@H](O)[C@]1(C)O` [AZM, azithromycin], for which the “inhibitory effect on MMP9 activity, lower than CEM-101” value with MMP9 activity was determined as 10 fold. In addition, the IC50 with MMP9 activity (setting [11]) is 212 µM; with IL-8 (CXCL8) release (setting [9]), > 333 µM. For the same compound, the MIC with P. aeruginosa PAO1 (setting [10]) is 8 µg/mL (≈ 10.7 µM); in the assay with P. aeruginosa PAO1 (setting [4]), 4 µg/mL (≈ 5.34 µM); with P. aeruginosa PAO1 (setting [5]), 128 µg/mL (≈ 171 µM); in the assay with P. aeruginosa PAO1 (setting [6]), 0.25 µg/mL (≈ 0.334 µM); with P. aeruginosa PAO1 (setting [7]) it was 4 µg/mL (≈ 5.34 µM); in the assay with P. aeruginosa PAO1 (setting [8]), 2 µg/mL (≈ 2.67 µM). For the same compound, the “effect on IL-8 production” value with IL-8 (CXCL8) release (33 to 333 μM (FIG. 4)) is reported as “did not inhibit”.

These data come from patent publication US9861616B2, “Methods for treating respiratory diseases and formulations therefor” (priority 2013, dated 2018).
